# Experimental data as given in patent US10780184B2, “Fluorescent solid lipid nanoparticles composition and preparation thereof” (BRACCO IMAGING S.P.A., priority 2013, dated 2020).
# How the values were obtained:
# [1] = Photobleaching experiment, 785 nm laser radiation; format: physicochemical; conditions: aqueous medium, 37° C., 3 sec irradiation/1 sec dark repeated for 1 h
# Procedure: A further advantage of the present invention is the improved photostability of the dye with respect to the free dye in water solution. An experiment was performed in aqueous medium by the exposition of free ICG solution and the ICG loaded SLNs suspension to a 785 nm laser radiation (see FIG. 2, Example 8). The fluorescence emissions were collected by NIR fluorescent imaging system (Pearl® Impulse system by LI-COR Biosciences). […] Then, the experiment was carried out in duplicate at 37° C. irradiating both samples for 3 sec and keeping the samples in the dark for 1 sec. This sequence was repeated in continuous for 1 h.
# The photobleaching experiment was performed by the exposition of free ICG aqueous solution and the ICG loaded SLNs suspension to a 785 nm laser radiation The fluorescence emissions were collected by NIR fluorescent imaging system (Pearl Impulse system by LI-COR Biosciences).
# Then, the experiment was carried out in duplicate at 37° C. irradiating both samples for 3 sec and keeping the samples in the dark for 1 sec. This sequence was repeated in continuous for 1 h.
# [2] = UV-Vis spectra for J-aggregates evaluation; format: physicochemical; conditions: SLNs suspension up to 120 days, free ICG in aqueous solution up to 15 days
# Procedure: In FIG. 4 (panel A, Example 7) there are reported the UV-Vis spectra of ICG-loaded SLNs suspension just after the formulation date and 90 and 120 days later. […] The absorbance at 800 nm is recovered at 96% with respect to the initial value. In addition, the fluorescence emission properties can be preserved by the incorporation of ICG in the SLNs over the observed period of time (data not shown).
# UV-Vis spectra of ICG-loaded SLNs suspension, prepared as described in the example 4, were recorded after the end of the formulation date, 90 and 120 days later keeping the suspension at store condition. After 120 days the absorbance was recovered at 96% with respect to the initial value (FIG. 4 A).
# A solution of ICG (0.14 mg/mL) was prepared in glucosate (5.5%) solution. The sample was diluted before the Uv-Vis analysis and the absorption behaviour was evaluated from 300 to 950 nm until 15 days (FIG. 4 B).
# [3] = Optical properties (absorption and emission maxima, Stokes' shift); format: physicochemical; conditions: SLNs formulation (example 4) or H2O
# From the text: Additional optical features (i.e. maximum absorption and emission wavelengths, Stokes' shifts) of ICG in aqueous medium and after incorporation in the SLNs are reported in Table E.
# [4] = human recommended dose of 0.5 mg/kg, intravenous; cited from earlier work
# [5] = tendency to aggregate; cited from earlier work
structure (smiles),measurement,setting,value
"CC1(C)C(/C=C/C=C/C=C/C=C2/N(CCCCS(=O)(=O)[O-])c3ccc4ccccc4c3C2(C)C)=[N+](CCCCS(=O)(=O)[O-])c2ccc3ccccc3c21.[Na+] [ICG, Indocyanine Green]","fluorescence emission remaining, of the initial emission fluorescence efficiency",[1],slightly above zero
same,aggregates (J-aggregates) formation,[2],can aggregate in few days
same,A max wavelength (nm),[3],780 nm
same,Fluor. Emission λmax (nm),[3],809 nm
same,Stokes' shift,[3],29
same,blood half-time,[4],around 3.0 minutes
same,time within which aqueous solution must be used,[5],≤ 6 h
